Measurements published in patent US20130287807A1, “COMPOUNDS FOR TREATING SYMPTOMS ASSOCIATED WITH PARKINSON'S DISEASE” (priority 2008, published 2013).
“Also recorded” adds a separate entry of the source.

Key:
[1] = tested on: monoclonal antibody (DAEFRH-peptide-specific); test: Inhibition assay (ELISA): mimotope peptides compete with plate-bound original epitope DAEFRH for recognition by the monoclonal antibody; assay type: binding, Mice; conditions: for inhibition of binding of the monoclonal antibody to the original epitope: text to FIGS. 2-9; for Inhibitory capacity of mimotopes: summary Tables 1 and 2 (Examples 2, 3)
Text: Mice are vaccinated with the 6mer peptide DAEFRH (natural N-terminal Aβ42 sequence) linked to the protein bovine serum albumin BSA (to make use of the hapten-carrier-effect), emulsified in CFA (first injection) and IFA (booster injections). DAEFRH-peptide-specific, antibody-producing hybridomas are detected by ELISA (DAEFRH-peptide-coated ELISA plates).
FIGS. 2 and 3 describe the results of inhibition assays performed with mimotope peptides included in and obtained from the 5 libraries (as described in WO 2004/062556). The mimotope peptides compete with the original epitope for recognition by the monoclonal antibody. Original epitope and mimotope peptides contain an additional C at the C-terminus for coupling to a protein carrier (if desired).
(§1) After blocking with PBS/BSA 1% (200 μl/well, 12 h, 4° C.), the plates are washed 3× times with PBS/Tween. Then, biotinylated monoclonal antibody (1:2000, 50 μl/well) and peptides (50 μl/well) at 50, 5, 0.5, 0.05, 0.005, and 0.0005 μg/ml are added for 20 min. at 37° C. The plates are washed 3× times with PBS/Tween and are incubated with horseradish peroxidase (HRP)-labeled streptavidin (100 μl/well, 30 min, RT). The plates are washed 5× times with PBS/Tween and are incubated with ABTS+H2O2(0.1% w/v, 10 to 45 min) and the reaction is stopped with citric acid followed by photometric evaluation (wavelength 405 nm).
as §1, with “different concentrations” for “50, 5, 0.5, 0.05, 0.005, and 0.0005 μg/ml”, “ABTS+H2O2 (0.1%” for “ABTS+H2O2(0.1%”
as §1, with “different concentrations” for “50, 5, 0.5, 0.05, 0.005, and 0.0005 μg/ml”

[2] = tested on: full length Aβ and/or fragments thereof; test: Immune response elicited by using AD mimotopes: detection of Aβ; assay type: in vivo; design: key: +: All peptides listed in table 1 mount specific immune reactions against full length Aβ and/or fragments thereof
Text: In the following Table further examples of the immune response elicited by using AD mimotopes are described. All peptides listed in table 1 mount specific immune reactions against full length Aβ and/or fragments thereof.

[3] = tested on: monoclonal antibody MV-003; test: In vitro binding assay (ELISA), BSA-coupled peptides, parental antibody MV-003; design: species or system BalbC mice; conditions: Table 1A; peptide-BSA on plate, compared to original epitope
Method: Peptides derived from Phage Display as well as variants thereof were coupled to BSA and bound to ELISA plates (1 μM; as indicated in the respective figures) and subsequently incubated with the monoclonal antibody that was used for the screening procedure to analyse binding capacity of identified peptides.
Legend to Table 1A: the binding capacity is coded by the following binding code: 1:X describes the dilution factor of the parental AB.

[4] = tested on: monoclonal antibody MV-003; test: In vitro inhibition assay (ELISA), MV-003 binding to original epitope; design: species or system BalbC mice; conditions: Table 2A; OD at 10 ug peptide compared to original peptide
Method: Different amounts of peptides (concentrations ranging from 10 μg to 0.08 μg; serial dilutions; for MV-002: concentrations ranging from 5 μg to 0.03 μg; serial dilutions), derived from Phage Display were incubated with the monoclonal antibody that was used for the screening procedure. Peptides diminishing subsequent binding of the antibody to the original epitope coated on ELISA plates were considered as inhibiting in this assay.
Legend to Table 2A: the inhibition capacity is coded by the following code: Weak inhibition means more peptide is required to lower AB binding than with the original epitope; strong inhibition means similar peptide amounts are required for mimotope and original epitope for lowering AB binding. Mimotopes are compared to the original peptide as standard. OD at 10 ug peptide used in the assay is used to calculate the competition capacity compared to original peptide.

[5] = target: monoclonal antibody MV-003; test: inhibition ELISA, competitor coated original epitope p4373; code 1 = weaker than original epitope
[6] = target: monoclonal antibody MV-003; test: ELISA on peptide-BSA; code 1 = weak binding, OD halfmax 1:<16000
[7] = target: monoclonal antibody MV-004; test: ELISA on peptide-BSA; code 1 = weak binding, OD halfmax 1:<24000
[8] = target: monoclonal antibody MV-004; test: inhibition ELISA, competitor coated original epitope p4372; code 1 = weaker than original epitope
[9] = target: monoclonal antibody MV-001; test: ELISA on peptide-BSA; code 3 = strong binding, OD halfmax 1:>20000
[10] = target: monoclonal antibody MV-001; test: inhibition ELISA, competitor coated original epitope p4371; code 2 = strong inhibition (as original epitope)
[11] = competition ELISA, plate-bound DAEFRH-C-BSA

For N=C(N)NCCC[C@H](NC(=O)[C@H](Cc1ccccc1)NC(=O)[C@H](CCC(=O)O)NC(=O)[C@H](Cc1ccc(O)cc1)NC(=O)[C@@H](N)CCC(=O)O)C(=O)NCC(=O)N[C@@H](CS)C(=O)O [Peptide 1239, EYEFRG], the “IC50 (inhibition of monoclonal antibody recognition of DAEFRH)” value ([1]; competition ELISA, plate-bound DAEFRH-C-BSA, biotinylated mAb 1:2000) was “more than 0.5 μg/ml”, the “inhibition of binding of the monoclonal antibody to the original epitope” value (from here on “inhibition of binding … to the original epitope”) [1, 11] was “block epitope recognition” and the “Inhibitory capacity of mimotopes” value [1] was “intermediate”. The “Detection of Aβ” value [2] was “+”.

IRWDGC [p4792] was tested, and the “Binding Capacity” value [3] was 1 (weak binding :<16000) and the “Inhibition Capacity” value [4] was 1 (Weaker than original epitope (OD of 10 ug peptide below 12 times of original peptide)).

For IRWDTSLC [p4728], the “Binding Capacity” value [3] was 3 (strong binding :>60000) and the “Inhibition Capacity” value [4] was 2 (strong inhibition (as original epitope; OD of 10 ug peptide below 5 times of original peptide)).

With IRWDGGC [p4793] the “Binding Capacity” value [3] was 2 (medium binding :16-60000) and the “Inhibition Capacity” value [4] was 1 (Weaker than original epitope (OD of 10 ug peptide below 12 times of original peptide)).

For C[C@H](NC(=O)[C@@H](N)CCC(=O)O)C(=O)N[C@@H](CCC(=O)O)C(=O)N[C@@H](Cc1ccccc1)C(=O)N[C@@H](CCCNC(=N)N)C(=O)NCC(=O)N[C@@H](CS)C(=O)O [Peptide 3006, EAEFRG], the “inhibition of binding … to the original epitope” value [1, 11] was “block epitope recognition”, the “Inhibitory capacity of mimotopes” value [1] was “strong” and the “Detection of Aβ” value [2] was “+”.

In the case of GREFRN (GREFRNC) [Peptide 4003], the “inhibition of binding … to the original epitope” value [1, 11] is reported as “block epitope recognition; also recorded: only inhibitory at a relatively high concentration (10 μg/ml)”, the “Inhibitory capacity of mimotopes” value [1] is reported as “weak” and the “Detection of Aβ” value [2] is reported as “+”.

With CC(C)C[C@H](NC(=O)[C@@H](N)CCC(=O)O)C(=O)N[C@@H](CCC(=O)O)C(=O)N[C@@H](Cc1ccccc1)C(=O)N[C@@H](CCCNC(=N)N)C(=O)NCC(=O)N[C@@H](CS)C(=O)O [Peptide 3008, ELEFRG] the “Inhibitory capacity of mimotopes” value [1] was “weak” and the “Detection of Aβ” value [2] was “+”.

IRWDQPC [p4756] was tested, and the “Binding Capacity” value [3] was 3 (strong binding :>60000) and the “Inhibition Capacity” value [4] was 1 (Weaker than original epitope (OD of 10 ug peptide below 12 times of original peptide)).

In the case of C[C@H](NC(=O)[C@@H](N)Cc1ccc(O)cc1)C(=O)N[C@@H](CCC(=O)O)C(=O)N[C@@H](Cc1ccccc1)C(=O)N[C@@H](CCCNC(=N)N)C(=O)NCC(=O)N[C@@H](CS)C(=O)O [Peptide 3005, YAEFRG], the “inhibition of binding … to the original epitope” value [1, 11] is reported as “block epitope recognition”, the “Inhibitory capacity of mimotopes” value [1] is reported as “intermediate” and the “Detection of Aβ” value [2] is reported as “+”.

In the case of N=C(N)NCCC[C@H](NC(=O)[C@H](Cc1ccccc1)NC(=O)[C@H](CCC(=O)O)NC(=O)[C@H](Cc1ccc(O)cc1)NC(=O)[C@@H](N)CC(=O)O)C(=O)NCC(=O)N[C@@H](CS)C(=O)O [Peptide 3007, DYEFRG], the “inhibition of binding … to the original epitope” value [1, 11] is reported as “block epitope recognition”, the “Inhibitory capacity of mimotopes” value [1] is reported as “strong” and the “Detection of Aβ” value [2] is reported as “+”.

B1: p4395 (peptide)
peptide: IRWDTPC
For B1, the OD at 10 ug peptide relative to OD of original peptide (inhibition ELISA) [5] was 5 to 12 fold.

B2: p4793 (peptide)
peptide: IRWDGGC
For B2, the OD at 10 ug peptide relative to OD of original peptide (inhibition ELISA) [5] was 5 to 12 fold.

B3: p4399 (peptide)
peptide: IRYDMAGC
Work on B3 yielded a dilution factor of the parental antibody at OD halfmax (1:X) (dilutionfactor(1:x)) [6] of under 16000.

B4: p4788 (peptide)
peptide: EVWHRGC
B4 gave an OD halfmax 1:X (dilution factor of the parental antibody at half-maximal OD) (dilutionfactor(1:x)) [7] of under 24000 and an OD at 10 ug peptide as multiple of OD with original peptide [8] of 2 to 5 fold.

B5: p4802 (peptide)
peptide: CHEFRH
Work on B5 yielded an OD halfmax 1:X (dilution factor of the parental antibody at half-maximal OD) (dilutionfactor(1:x)) [9] of over 20000 and an OD at 10 ug peptide relative to OD of original peptide (inhibition ELISA) [10] of under 2 fold.

B6: p4420 (peptide)
peptide: ELWHRYPC
In the case of B6, the OD at 10 ug peptide as multiple of OD with original peptide [8] is reported as 2 to 5 fold.

B7: p4803 (peptide)
peptide: HEFRHC
Work on B7 yielded an OD halfmax 1:X (dilution factor of the parental antibody at half-maximal OD) (dilutionfactor(1:x)) [9] of over 20000 and an OD at 10 ug peptide relative to OD of original peptide (inhibition ELISA) [10] of under 2 fold.

B8: p4397 (peptide)
peptide: IRYDAPLC
B8 gave a dilution factor of the parental antibody at OD halfmax (1:X) (dilutionfactor(1:x)) [6] of under 16000 and an OD at 10 ug peptide relative to OD of original peptide (inhibition ELISA) [5] of 5 to 12 fold.

B9: p4417 (peptide)
peptide: EVWHRHQC
Molecule B9 has an OD at 10 ug peptide as multiple of OD with original peptide [8] of 2 to 5 fold.

B10: p4396 (peptide)
peptide: VRWDVYPC
Work on B10 yielded a dilution factor of the parental antibody at OD halfmax (1:X) (dilutionfactor(1:x)) [6] of under 16000.

B11: p4792 (peptide)
peptide: IRWDGC
For B11, the dilution factor of the parental antibody at OD halfmax (1:X) (dilutionfactor(1:x)) [6] was under 16000 and the OD at 10 ug peptide relative to OD of original peptide (inhibition ELISA) [5] was 5 to 12 fold.

B12: p4753 (peptide)
peptide: TEFRHKAC
B12 was tested, and the OD halfmax 1:X (dilution factor of the parental antibody at half-maximal OD) (dilutionfactor(1:x)) [9] was over 20000 and the OD at 10 ug peptide relative to OD of original peptide (inhibition ELISA) [10] was under 2 fold.

B13: p4786 (peptide)
peptide: ELWHRAC
For B13, the OD halfmax 1:X (dilution factor of the parental antibody at half-maximal OD) (dilutionfactor(1:x)) [7] was under 24000 and the OD at 10 ug peptide as multiple of OD with original peptide [8] was 2 to 5 fold.

B14: p4715 (peptide)
peptide: TLHEFRHC
Work on B14 yielded an OD halfmax 1:X (dilution factor of the parental antibody at half-maximal OD) (dilutionfactor(1:x)) [9] of over 20000 and an OD at 10 ug peptide relative to OD of original peptide (inhibition ELISA) [10] of under 2 fold.

B15: p4800 (peptide)
peptide: CSEFKH
Work on B15 yielded an OD halfmax 1:X (dilution factor of the parental antibody at half-maximal OD) (dilutionfactor(1:x)) [9] of over 20000 and an OD at 10 ug peptide relative to OD of original peptide (inhibition ELISA) [10] of under 2 fold.
